Results from patent US7994185B2, “Benzene sulfonamide thiazole and oxazole compounds” (Glaxo Smith Kline LLC, priority 2008, dated 2011).
Like-named read-outs stand apart in the source and are kept apart here.

What was measured:
[1] = biological target: T1, BRAFV600E full-length (amino acids 2-766) (Homo sapiens, UniProt P15056, V600E); assay: B-Raf Accelerated MEK ATPase assay (BRAMA); assay type: biochemical
T1 construct: His6-tagged BRAFV600E full-length (amino acids 2-766); His6; made in house; host or cells: baculovirus expression system (insect cells)
Outline: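 Coupled-enzyme readout: ADP generated by MEK-mediated ATP hydrolysis, uncoupled from ERK phosphorylation, is linked to NADH oxidation through pyruvate kinase and lactate dehydrogenase.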

[2] = system: Human colon tumor cells (Colo205); assay: Cell growth inhibition assay (CellTiter-Glo), Colo205; assay type: cell-based
Outline: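 Luminescent ATP read-out (CellTiter-Glo) served as a proxy for cell number; percent growth inhibition was calculated against DMSO vehicle wells. Cells were treated for 3 days at 37 °C with serially diluted compound, 0.2% DMSO final.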

[3] = system: Human melanoma cancer cells (SK-MEL-28); assay: Cell growth inhibition assay (CellTiter-Glo), SK-MEL-28; assay type: cell-based
[4] = B-Raf Activity, Table 1a, highest pIC50 for the one or more runs, categorized
[5] = Table 1b, later runs, average pIC50 for the one or more runs, categorized, read-out: B-Raf pIC50 (converted)
[6] = COLO 205, 72 h, Table 2a, 3 days incubation, read-out: Activity in Colo205 Tumor Cells
[7] = COLO 205, Table 2b, later runs, average for the one or more runs, categorized, read-out: IC50 for Colo205
[8] = SK-MEL-28, 72 h, Table 3a, 3 days incubation, read-out: Activity in SK-MEL-28 Tumor Cells
[9] = SK-MEL-28, Table 3b, later runs, average for the one or more runs, categorized, read-out: IC50 for SK-MEL-28
[10] = B-Raf pIC50, Table 1b, later runs, average pIC50 for the one or more runs, categorized

T1 sequence (P15056 2-766 V600E): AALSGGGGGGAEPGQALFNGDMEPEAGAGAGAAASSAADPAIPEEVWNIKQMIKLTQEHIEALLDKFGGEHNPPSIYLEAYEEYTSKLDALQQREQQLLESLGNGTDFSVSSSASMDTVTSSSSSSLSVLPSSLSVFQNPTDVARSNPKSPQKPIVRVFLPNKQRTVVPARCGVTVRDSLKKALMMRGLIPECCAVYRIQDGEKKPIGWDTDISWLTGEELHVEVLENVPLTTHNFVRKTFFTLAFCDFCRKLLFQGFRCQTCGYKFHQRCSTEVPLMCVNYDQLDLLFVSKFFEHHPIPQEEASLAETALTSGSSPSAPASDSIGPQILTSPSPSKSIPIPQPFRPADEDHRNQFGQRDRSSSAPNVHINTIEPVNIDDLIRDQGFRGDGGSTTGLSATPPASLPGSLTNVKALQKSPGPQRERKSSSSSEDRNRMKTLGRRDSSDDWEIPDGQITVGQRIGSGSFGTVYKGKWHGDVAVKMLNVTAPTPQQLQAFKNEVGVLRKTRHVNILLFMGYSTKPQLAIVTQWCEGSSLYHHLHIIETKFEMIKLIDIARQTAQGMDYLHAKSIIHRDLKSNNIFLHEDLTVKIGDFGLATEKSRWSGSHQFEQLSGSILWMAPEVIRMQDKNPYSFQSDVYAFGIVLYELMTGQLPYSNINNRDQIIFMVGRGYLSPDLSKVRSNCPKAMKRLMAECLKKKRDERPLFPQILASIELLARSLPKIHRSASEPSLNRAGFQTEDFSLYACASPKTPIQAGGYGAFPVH

Row | Compound | IC50 [1, 4] [nM] | IC50 [1, 5] [nM] | IC50 [2, 6] [nM] | IC50 [2, 7] [nM] | IC50 [3, 8] [nM] | IC50 [3, 9] [nM] | IC50 [1, 10] [nM] | IC50 [1] [nM]
1 | CC(C)CNc1nccc(-c2sc(C(C)(C)C)nc2-c2ccc(F)c(NS(=O)(=O)c3c(F)cccc3F)c2)n1 [Example 46, N-[5-(2-(1,1-Dimethylethyl)-5-{2-[(2-methylpropyl)amino]-4-pyrimidinyl}-1,3-thiazol-4-yl)-2-fluorophenyl]-2,6-difluorobenzenesulfonamide] | < 100 | 3.16 to 31.6 | 100 to 1000 | 100 to 1000 | 100 to 1000 | 100 to 1000 |  | 
2 | COc1c(NS(=O)(=O)c2c(F)cccc2F)cccc1-c1nc(N2CCOCC2)sc1-c1ccnc(NCC(C)C)n1 [Example 47, 2,6-Difluoro-N-{2-(methyloxy)-3-[5-{2-[(2-methylpropyl)amino]-4-pyrimidinyl}-2-(4-morpholinyl)-1,3-thiazol-4-yl]phenyl}benzenesulfonamide] | < 100 | 3.16 to 31.6 | 100 to 1000 | 100 to 1000 | 100 to 1000 | 100 to 1000 |  | 
3 | Nc1nccc(-c2sc(N3CCOCC3)nc2-c2cccc(NS(=O)(=O)C3CCCCC3)c2F)n1 [Example 48, N-{3-[5-(2-Amino-4-pyrimidinyl)-2-(4-morpholinyl)-1,3-thiazol-4-yl]-2-fluorophenyl}cyclohexanesulfonamide] | 100 to 1000 |  | 100 to 1000 | 100 to 1000 | 100 to 1000 | 100 to 1000 | 31.6 to 1000 | 
4 | Nc1nccc(-c2sc(N3CCOCC3)nc2-c2cccc(NS(=O)(=O)N3CCCCC3)c2F)n1 [Example 49, N-{3-[5-(2-Amino-4-pyrimidinyl)-2-(4-morpholinyl)-1,3-thiazol-4-yl]-2-fluorophenyl}-1-piperidinesulfonamide] | 100 to 1000 |  | 100 to 1000 | 100 to 1000 | 100 to 1000 | 100 to 1000 | 31.6 to 1000 | 
5 | Nc1nccc(-c2sc(N3CCOCC3)nc2-c2cccc(NS(=O)(=O)N3CCOCC3)c2F)n1 [Example 50, N-{3-[5-(2-Amino-4-pyrimidinyl)-2-(4-morpholinyl)-1,3-thiazol-4-yl]-2-fluorophenyl}-4-morpholinesulfonamide] | 100 to 1000 |  | > 1000 | 1000 to 10000 | > 1000 | 1000 to 10000 | 31.6 to 1000 | 
6 | Nc1nccc(-c2sc(N3CCOCC3)nc2-c2cccc(NS(=O)(=O)C3CC3)c2F)n1 [Example 51, N-{3-[5-(2-Amino-4-pyrimidinyl)-2-(4-morpholinyl)-1,3-thiazol-4-yl]-2-fluorophenyl}cyclopropanesulfonamide] |  |  | > 1000 | 1000 to 10000 | > 1000 | 1000 to 10000 |  | > 1000
7 | CC(C)c1nc(-c2cccc(NS(=O)(=O)C3CC3)c2)c(-c2ccnc(NCCS(C)(=O)=O)n2)s1 [Example 52, N-{3-[2-(1-Methylethyl)-5-(2-{[2-(methylsulfonyl)ethyl]amino}-4-pyrimidinyl)-1,3-thiazol-4-yl]phenyl}cyclopropanesulfonamide] | 100 to 1000 |  | 100 to 1000 | 100 to 1000 | 100 to 1000 | 100 to 1000 | 31.6 to 1000 | 
8 | Cc1ccc(F)cc1S(=O)(=O)Nc1cccc(-c2nc(C(C)(C)C)sc2-c2ccnc(N)n2)c1F [Example 53, N-{3-[5-(2-Amino-4-pyrimidinyl)-2-(1,1-dimethylethyl)-1,3-thiazol-4-yl]-2-fluorophenyl}-5-fluoro-2-methylbenzenesulfonamide] | < 100 | 3.16 to 31.6 | < 100 | < 100 | < 100 | < 100 |  | 
9 | CC(C)(C)c1nc(-c2cccc(NS(=O)(=O)c3ccccc3F)c2F)c(-c2ccnc(N)n2)s1 [Example 54, N-{3-[5-(2-Amino-4-pyrimidinyl)-2-(1,1-dimethylethyl)-1,3-thiazol-4-yl]-2-fluorophenyl}-2-fluorobenzenesulfonamide] | < 100 |  | < 100 | < 100 | < 100 | < 100 | ≤ 3.16 | 
10 | CC(C)c1nc(-c2ccc(F)c(NS(=O)(=O)C3CC3)c2)c(-c2ccnc(NCCS(C)(=O)=O)n2)s1 [Example 55, N-{2-fluoro-5-[2-(1-methylethyl)-5-(2-{[2-(methylsulfonyl)ethyl]amino}-4-pyrimidinyl)-1,3-thiazol-4-yl]phenyl}cyclopropanesulfonamide] | 100 to 1000 |  | 100 to 1000 | 100 to 1000 | > 1000 | 1000 to 10000 | 31.6 to 1000 | 
11 | Nc1nccc(-c2sc(N3CCOCC3)nc2-c2cccc(NS(=O)(=O)c3cc(F)ccc3F)c2F)n1 [Example 56, N-{3-[5-(2-Amino-4-pyrimidinyl)-2-(4-morpholinyl)-1,3-thiazol-4-yl]-2-fluorophenyl}-2,5-difluorobenzenesulfonamide] | < 100 |  | < 100 | < 100 | < 100 | < 100 | ≤ 3.16 | 
12 | CC(C)c1nc(-c2cccc(NS(=O)(=O)c3c(F)cccc3F)c2F)c(-c2ccnc(N)n2)s1 [Example 60, N-{3-[5-(2-Amino-4-pyrimidinyl)-2-(1-methylethyl)-1,3-thiazol-4-yl]-2-fluorophenyl}-2,6-difluorobenzenesulfonamide] | < 100 |  | < 100 | < 100 | < 100 | < 100 | ≤ 3.16 | 
13 | Nc1nccc(-c2sc(N3CCOCC3)nc2-c2cccc(NS(=O)(=O)c3cccnc3)c2F)n1 [Example 61, N-{3-[5-(2-Amino-4-pyrimidinyl)-2-(4-morpholinyl)-1,3-thiazol-4-yl]-2-fluorophenyl}-3-pyridinesulfonamide] | < 100 |  | 100 to 1000 | 100 to 1000 | 100 to 1000 | 100 to 1000 | ≤ 3.16 | 
14 | Nc1nccc(-c2sc(N3CCOCC3)nc2-c2cccc(NS(=O)(=O)c3ccco3)c2F)n1 [Example 62, N-{3-[5-(2-Amino-4-pyrimidinyl)-2-(4-morpholinyl)-1,3-thiazol-4-yl]-2-fluorophenyl}-2-furansulfonamide] | < 100 |  | 100 to 1000 | 100 to 1000 | 100 to 1000 | 100 to 1000 | ≤ 3.16 | 
15 | CC(C)(C)c1nc(-c2cccc(NS(=O)(=O)C3CCCCC3)c2F)c(-c2ccnc(N)n2)s1 [Example 63, N-{3-[5-(2-Amino-4-pyrimidinyl)-2-(1,1-dimethylethyl)-1,3-thiazol-4-yl]-2-fluorophenyl}cyclohexanesulfonamide] | 100 to 1000 |  | 100 to 1000 | 100 to 1000 | 100 to 1000 | 100 to 1000 | 31.6 to 1000 | 
16 | CC(C)CNc1nccc(-c2sc(C3CCOCC3)nc2-c2cccc(NS(=O)(=O)c3cc(F)ccc3F)c2F)n1 [Example 67, 2,5-Difluoro-N-{2-fluoro-3-[5-{2-[(2-methylpropyl)amino]-4-pyrimidinyl}-2-(tetrahydro-2H-pyran-4-yl)-1,3-thiazol-4-yl]phenyl}benzenesulfonamide] | < 100 |  | < 100 | < 100 | < 100 | < 100 | ≤ 3.16 | 
17 | Nc1nccc(-c2sc(C3CCOCC3)nc2-c2ccc(F)c(NS(=O)(=O)c3cc(F)ccc3F)c2)n1 [Example 68, N-{5-[5-(2-Amino-4-pyrimidinyl)-2-(tetrahydro-2H-pyran-4-yl)-1,3-thiazol-4-yl]-2-fluorophenyl}-2,5-difluorobenzenesulfonamide] | 100 to 1000 |  | > 1000 | 1000 to 10000 | > 1000 | 1000 to 10000 | 31.6 to 1000 | 
18 | CC(C)CNc1nccc(-c2sc(C3CCOCC3)nc2-c2ccc(F)c(NS(=O)(=O)c3cc(F)ccc3F)c2)n1 [Example 69, 2,5-Difluoro-N-{2-fluoro-5-[5-{2-[(2-methylpropyl)amino]-4-pyrimidinyl}-2-(tetrahydro-2H-pyran-4-yl)-1,3-thiazol-4-yl]phenyl}benzenesulfonamide] | < 100 |  | 100 to 1000 | 100 to 1000 | 100 to 1000 | 100 to 1000 | ≤ 3.16 | 
19 | CS(=O)(=O)N1CCC(Nc2nccc(-c3sc(C4CCOCC4)nc3-c3ccc(F)c(NS(=O)(=O)c4cc(F)ccc4F)c3)n2)CC1 [Example 70, 2,5-Difluoro-N-{2-fluoro-5-[5-(2-{[1-(methylsulfonyl)-4-piperidinyl]amino}-4-pyrimidinyl)-2-(tetrahydro-2H-pyran-4-yl)-1,3-thiazol-4-yl]phenyl}benzenesulfonamide] | < 100 | 3.16 to 31.6 | 100 to 1000 | 100 to 1000 | 100 to 1000 | 100 to 1000 |  | 
20 | Nc1nccc(-c2sc(C3CCOC3)nc2-c2cccc(NS(=O)(=O)c3c(F)cccc3F)c2F)n1 (centres unmarked) [Example 71, N-{3-[5-(2-Amino-4-pyrimidinyl)-2-(tetrahydro-3-furanyl)-1,3-thiazol-4-yl]-2-fluorophenyl}-2,6-difluorobenzenesulfonamide] | < 100 | 3.16 to 31.6 | 100 to 1000 | 100 to 1000 | 100 to 1000 | 100 to 1000 |  | 
